Test results published in PMC4649711, “In1-ghrelin splicing variant is overexpressed in pituitary adenomas and increases their aggressive features” (Scientific Reports, 2015).
Several values for one entry are separate records, joined by “and”; a condition that tells them apart may be missing. Equal entries are not always repeated.

Columns and labels:
[1] = tested on: PRL-omas; assay: cell viability of PRL-oma primary cultures, peptide treatment; type: cell-based, human; details: 100 nM, time not specified in text (24-, 48- and/or 72-h), alamar-blue, n = 2–3
Procedure: (§1) Pituitary adenoma specimens were dispersed into single cells by enzymatic and mechanical disruption and cultured onto tissue culture plates in serum containing medium, as previously described. Briefly, pituitary samples were resected by endoscopic transsphenoidal surgery and transferred to sterile cold (4°C) culture medium (S-MEM, Gibco, Madrid, Spain) supplemented with 0.1% BSA, 0.01% L-glutamine, 1% antibiotic-antimycotic solution, and 2.5% HEPES. Samples were minced under sterile conditions into 1–2 mm^3 pieces. Some pieces were stored at −80°C for posterior RNA isolation and, when possible, the remaining tissue samples were washed and incubated in 30 mL S-MEM medium supplemented 0.3% trypsin (Beckson, Dickinson and Company, Sparks, MD, USA) in a spinner flask (Bellco Glass, Vineland, NJ, USA) for 2 h of gentle shaking at 37°C and then, incubation was continued for another 5 min in presence of 1 mg of DNAse I (Roche, Mannheim, Germany). Dispersed cells were decanted by centrifugation and then, by repeated aspiration into a smoothtipped glass Pasteur pipette. […]
As previously reported, cell viability was estimated using alamar-blue reagent (10,000 cells/well-plate; Biosource International, Camarillo, CA, USA)[30][50][52]. […] Reduction of alamar-blue reagent was quantified exciting at 560 nm and reading at 590 nm using the FlexStation III system (Molecular Devices, Sunnyvale, CA, USA). […]

[2] = tested on: AtT-20 cell line; assay: ACTH secretion from AtT-20 cell line; type: cell-based, mouse; details: 4 h, 3–5 independent experiments
Procedure: The mouse corticotroph pituitary derived cell line AtT-20/D16v-F2 (ATCC® CRL-1795) was cultured and maintained in Dulbecco's Modified Eagle's Medium (DMEM) complemented with 10% FBS, 100 U/ml penicillin/streptomycin, 0.024 M of 2-(4(2-hydroxyethyl)-1-piperazine)-ethane sulfonic acid (HEPES), and maintained at 37°C and 5% CO2, under sterile conditions. CHO-K1 cell line(ATCC® CCL-61) expressing recombinant human GHSR1a (GenBank accession number U60179) or GHSR1b (GenBank accession number U60181) were cultured and maintained in Ham's F12 media (Corning #10-080-CV) supplemented with 10% FBS, 2 mM L-Glutamine and 0.4 mg/mL Geneticin.
To examine the effects of ghrelin system components (4- and/or 24 h-incubation) on pituitary hormone release from primary pituitary adenoma and/or AtT-20 cell line, 100,000–200,000 cell/well were used. As previously reported, hormone concentrations were measured in the culture media derived from human samples according to the pituitary adenoma type using commercial ELISAs [growth hormone, GH; adrenocorticotropin, ACTH; and prolactin, PRL (reference numbers: EIA-3552, EIA-3647 and EIA-1291, respectively; DRG, Mountainside, NJ, USA)] following the manufacturer's instructions. All the information regarding specificity, detectability, and reproducibility for each of the assays can be accessed at the web site of the company.

[3] = tested on: ACTH-omas (tumoral pituitary cells); assay: free cytosolic calcium kinetics ([Ca^2+]i), ACTH-oma cells; type: cell-based, human
Procedure: as §1
As previously reported, changes in [Ca^2+]i in single cells were measured using fura-2AM (50,000 cells/coverslip; Molecular Probes, Eugene, OR)[23][30]. […] Cells were examined for changes in [Ca^2+]i after the appropriate treatment (native ghrelin, In1-19 or In1-40) using a 40× objective with Immersion Oil Type NF (Nikon, Tokyo, Japan) while exposed to alternating 340–380 nm light beams, and the intensity of light emission at 505 nm was measured every 5 seconds using MetaFluor Software (Imaging Corp., West Chester, PA, USA). […] Changes in [Ca^2+]i in CHO-K1 cell line expressing recombinant GHSR1a or GHSR1b receptor were measured using Calcium 4 Explorer Kit (Molecular Devices, Sunnyvale, CA, USA). […] Fluorescent signals were then monitored using the FLIPR Tetra (Molecular Devices, Sunnyvale, CA, USA) during which cells were stimulated with compounds. Dose-response curves were analyzed using GraphPad Prism v5.04 (La Jolla, CA, USA).

[4] = tested on: p-Akt; assay: Akt phosphorylation by western blot in GH-omas; type: cell-based, human; details: 100 nM, 8 minutes, p-Akt/total Akt vs vehicle (100%), n = 4
Procedure: as §1, with “pipette. Cells suspensions were washed once in 4.5 g/L glucose containing DMEM medium (Gibco, Madrid, Spain) supplemented with 0.1% BSA, 0.01% L-glutamine, 1% antibiotic-antimycotic solution, and 2.5% HEPES.” for “pipette.”

Structure (SMILES): CCCCCCCC(=O)OC[C@H](NC(=O)[C@H](CO)NC(=O)CN)C(=O)N[C@@H](Cc1ccccc1)C(=O)N[C@@H](CC(C)C)C(=O)N[C@@H](CO)C(=O)N1CCC[C@H]1C(=O)N[C@@H](CCC(=O)O)C(=O)N[C@@H](Cc1c[nH]cn1)C(=O)N[C@@H](CCC(N)=O)C(=O)N[C@@H](CCCNC(=N)N)C(=O)N[C@H](C(=O)N[C@@H](CCC(N)=O)C(=O)N[C@@H](CCC(N)=O)C(=O)N[C@@H](CCCNC(=N)N)C(=O)N[C@@H](CCCCN)C(=O)N[C@@H](CCC(=O)O)C(=O)N[C@@H](CO)C(=O)N[C@@H](CCCCN)C(=O)N[C@@H](CCCCN)C(=O)N1CCC[C@H]1C(=O)N1CCC[C@H]1C(=O)N[C@@H](C)C(=O)N[C@@H](CCCCN)C(=O)N[C@@H](CC(C)C)C(=O)N[C@@H](CCC(N)=O)C(=O)N1CCC[C@H]1C(=O)N[C@@H](CCCNC(=N)N)C(=O)O)C(C)C [AG]
- cell viability [1]: significant increases
- basal ACTH release [2]: did not significantly alter basal ACTH release
- [Ca^2+]i response (in words) ([3]; fura-2AM): doubling the [Ca^2+]i levels
- % cell resp. ([3]; proportion of responsive cells, fura-2AM single-cell imaging): 74% and 74.1%
- # samples ([3]; responsive/tested samples, fura-2AM, 742 / 230 / 143 cells analyzed for AG / In1-19 / In1-40, peptides 100 nM (abstract)): 9/9
- p-Akt levels [4]: increased both, p-ERK1/2 as well as p-Akt, levels
